From PubChem BioAssay AID330 (DTP/NCI, 2004)
Several values for one entry are separate records, joined by “and”; a condition that tells them apart may be missing. Equal entries are not always repeated. Toxic doses and inconclusive results are not listed.

Tested on: P388 leukemia ip, CD2F1 mice, survival T/C
Assay: NCI In Vivo Anticancer Drug Screen. Data for tumor model P388 Leukemia (intraperitoneal) in CD2F1 (CDF1) mice
Conditions: endpoint: median survival time, higher = longer survival
Method in brief: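 Mice carrying the transplanted tumor received test compound or vehicle. Survival was recorded in each group, and the value is the treated-group measurement divided by that of the vehicle-treated control group.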

[1] = dose: 50.0 mg/kg/injection, schedule: Q01DX005 (ip), vehicle: Klucel (hydroxypropylcellulose) (HPC)
[2] = dose: 100.0 mg/kg/injection, schedule: Q01DX005 (ip), vehicle: Klucel (hydroxypropylcellulose) (HPC)
[3] = dose: 200.0 mg/kg/injection, schedule: Q01DX005 (ip), vehicle: Klucel (hydroxypropylcellulose) (HPC)
[4] = dose: 100.0 mg/kg/injection, schedule: Q04DX003 (ip), vehicle: Klucel (hydroxypropylcellulose) (HPC)
[5] = dose: 200.0 mg/kg/injection, schedule: Q04DX003 (ip), vehicle: Klucel (hydroxypropylcellulose) (HPC)
[6] = dose: 400.0 mg/kg/injection, schedule: Q04DX003 (ip), vehicle: Klucel (hydroxypropylcellulose) (HPC)
[7] = dose: 50.0 mg/kg/injection, schedule: Q01DX009 (ip), vehicle: saline with Tween-80
[8] = dose: 100.0 mg/kg/injection, schedule: Q01DX009 (ip), vehicle: saline with Tween-80
[9] = dose: 200.0 mg/kg/injection, schedule: Q01DX009 (ip), vehicle: saline with Tween-80
[10] = dose: 50.0 mg/kg/injection, schedule: Q01DX009 (ip), vehicle: Klucel (hydroxypropylcellulose) (HPC)
[11] = dose: 100.0 mg/kg/injection, schedule: Q01DX009 (ip), vehicle: Klucel (hydroxypropylcellulose) (HPC)
[12] = dose: 200.0 mg/kg/injection, schedule: Q01DX009 (ip), vehicle: Klucel (hydroxypropylcellulose) (HPC)
[13] = dose: 400.0 mg/kg/injection, schedule: Q01DX009 (ip), vehicle: saline with Tween-80

O=c1c2ccccc2n(-c2ccccc2)c2ccccc12
T/C [1]: 100 % of control
T/C [2]: 100 % of control
T/C [3]: 99 % of control

N#CN=[N+]([O-])c1cccc([N+](=O)[O-])c1
T/C (dose: 6.25 mg/kg/injection, schedule: Q04DX003 (ip), vehicle: Klucel (hydroxypropylcellulose) (HPC)): 106 % of control
T/C (dose: 12.5 mg/kg/injection, schedule: Q04DX003 (ip), vehicle: Klucel (hydroxypropylcellulose) (HPC)): 89 % of control

C=C(C)c1nc(N)nc(NCCCC)n1
T/C [4]: 104 % of control
T/C [5]: 100 % of control
T/C [6]: 96 % of control

COc1ccc(N2C(=O)c3ccc4c5ccc6c7c(ccc(c8ccc(c3c48)C2=O)c75)C(=O)NC6=O)cc1
T/C (dose: 12.5 mg/kg/injection, schedule: Q01DX005 (ip), vehicle: Klucel (hydroxypropylcellulose) (HPC)): 89 % of control
T/C (dose: 25.0 mg/kg/injection, schedule: Q01DX005 (ip), vehicle: Klucel (hydroxypropylcellulose) (HPC)): 90 % of control
T/C [1]: 90 % of control
T/C [2]: 90 % of control
T/C [3]: 89 % of control

Cc1ccccc1NC(=O)C(=O)C(C#N)c1ccc(Cl)cc1Cl (stereo not drawn)
T/C (dose: 50.0 mg/kg/injection, schedule: Q01DX005 (ip), vehicle: saline with Tween-80): 100 % of control
T/C (dose: 100.0 mg/kg/injection, schedule: Q01DX005 (ip), vehicle: saline with Tween-80): 100 % of control
T/C (dose: 200.0 mg/kg/injection, schedule: Q01DX005 (ip), vehicle: saline with Tween-80): 98 % of control

CC(C)(C)C(=O)CC(=O)C(C)(C)C.[Cl][Sb]1([Cl])[c]2ccccc2Cc2cccc[c]21
T/C [7]: 100 % of control
T/C [8]: 108 % of control
T/C [9]: 107 % of control

N=C(N)c1ccc(/C=C/c2ccc(C(=N)N)cc2)cc1
T/C (dose: 8.0 mg/kg/injection, schedule: Q01DX009 (ip), vehicle: saline with Tween-80): 119 % of control
T/C (dose: 16.0 mg/kg/injection, schedule: Q01DX009 (ip), vehicle: saline with Tween-80): 122 % of control and 124 % of control
T/C (dose: 32.0 mg/kg/injection, schedule: Q01DX009 (ip), vehicle: saline with Tween-80): 124 % of control
T/C (dose: 64.0 mg/kg/injection, schedule: Q01DX009 (ip), vehicle: Klucel (hydroxypropylcellulose) (HPC)): 177 % of control

Cc1cc(N/N=C/c2cccnc2)c2ccccc2n1
T/C [10]: 94 % of control
T/C [11]: 100 % of control
T/C [12]: 98 % of control

CCOC(=O)c1cc(-c2ccccn2)c(=O)n2ccccc12
T/C (dose: 12.5 mg/kg/injection, schedule: Q01DX009 (ip), vehicle: saline): 108 % of control
T/C (dose: 25.0 mg/kg/injection, schedule: Q01DX009 (ip), vehicle: saline): 107 % of control
T/C [7]: 100 % of control
T/C (dose: 50.0 mg/kg/injection, schedule: Q01DX009 (ip), vehicle: saline): 100 % of control

COC(=O)c1cc(-c2cccc3ccccc23)[nH]c(=O)c1C#N
T/C (dose: 60.0 mg/kg/injection, schedule: Q01DX005 (ip), vehicle: saline with Tween-80): 95 % of control
T/C (dose: 120.0 mg/kg/injection, schedule: Q01DX005 (ip), vehicle: saline with Tween-80): 100 % of control

Cc1cccc(NC(=O)Oc2ccc(Cl)c3cccnc23)c1
T/C [10]: 112 % of control
T/C [11]: 102 % of control
T/C [12]: 114 % of control

CC(C)(C)c1cc(C(C)(C)O)c2c(c1)C(C)(C)OS2(C)Cl (stereo not drawn)
T/C (dose: 50.0 mg/kg/injection, schedule: Q04DX003 (ip), vehicle: saline with Tween-80): 104 % of control

COc1ccc(CCN2C(=O)C(=O)N(c3cccc(Cl)c3)C2=O)cc1OC
T/C [11]: 86 % of control
T/C [12]: 92 % of control

CC(=O)OC1=C(C)[C@@H]2CC(=O)O[C@@H]3C[C@H]4[C@H](C)C[C@H](O)[C@H](O)[C@]4(C)[C@@H](C1=O)[C@@]32C
T/C (dose: 0.5 mg/kg/injection, schedule: Q01DX005 (ip), vehicle: saline + alcohol): 101 % of control
T/C (dose: 1.0 mg/kg/injection, schedule: Q01DX005 (ip), vehicle: saline + alcohol): 103 % of control
T/C (dose: 2.0 mg/kg/injection, schedule: Q01DX005 (ip), vehicle: saline + alcohol): 115 % of control
T/C (dose: 4.0 mg/kg/injection, schedule: Q01DX005 (ip), vehicle: saline + alcohol): 111 % of control
T/C (dose: 8.0 mg/kg/injection, schedule: Q01DX005 (ip), vehicle: saline + alcohol): 115 % of control
T/C (dose: 16.0 mg/kg/injection, schedule: Q01DX005 (ip), vehicle: saline + alcohol): 101 % of control
T/C (dose: 32.0 mg/kg/injection, schedule: Q01DX005 (ip), vehicle: saline + alcohol): 94 % of control

CC(=O)N1CC(=O)NC1=S
T/C [7]: 106 % of control
T/C [8]: 97 % of control
T/C [9]: 103 % of control and 95 % of control
T/C [13]: 104 % of control

CC(C)(C)/C=C/N1N=NC(c2ccccc2)(c2ccccc2)C1=O
T/C [1]: 91 % of control
T/C [2]: 92 % of control
T/C [3]: 96 % of control

CC(=O)OCc1cocc1COC(C)=O
T/C [1]: 100 % of control and 103 % of control
T/C [2]: 107 % of control and 98 % of control
T/C [3]: 117 % of control and 94 % of control

Nc1nc(N)c(Cl)c(Nc2cccc(Cl)c2)n1
T/C (dose: 6.25 mg/kg/injection, schedule: Q01DX001 (ip), vehicle: saline with Tween-80): 94 % of control

CN1CC=C(c2ccccc2)C(O)C1 (stereo not drawn)
T/C (dose: 12.5 mg/kg/injection, schedule: Q04DX002 (ip), vehicle: saline): 116 % of control
T/C (dose: 15.0 mg/kg/injection, schedule: Q01DX005 (ip), vehicle: saline): 100 % of control
T/C (dose: 25.0 mg/kg/injection, schedule: Q04DX002 (ip), vehicle: saline): 101 % of control
T/C (dose: 30.0 mg/kg/injection, schedule: Q01DX005 (ip), vehicle: saline): 99 % of control
T/C (dose: 50.0 mg/kg/injection, schedule: Q04DX002 (ip), vehicle: saline): 101 % of control
T/C (dose: 60.0 mg/kg/injection, schedule: Q01DX005 (ip), vehicle: saline): 117 % of control and 97 % of control

CCOc1ccc(C(=O)Nc2c(C)cc(C)cc2C)cc1
T/C [8]: 90 % of control
T/C [9]: 95 % of control
T/C [13]: 105 % of control

COC1C(=O)c2ccccc2N1C(C)=O (stereo not drawn)
T/C (dose: 60.0 mg/kg/injection, schedule: Q01DX005 (ip), vehicle: Klucel (hydroxypropylcellulose) (HPC)): 108 % of control
T/C (dose: 120.0 mg/kg/injection, schedule: Q01DX005 (ip), vehicle: Klucel (hydroxypropylcellulose) (HPC)): 101 % of control
T/C (dose: 240.0 mg/kg/injection, schedule: Q01DX005 (ip), vehicle: Klucel (hydroxypropylcellulose) (HPC)): 99 % of control

O=C(c1ncccc1O)N1CCCCC1
T/C (dose: 12.5 mg/kg/injection, schedule: Q01DX009 (ip), vehicle: distilled water + Tween-80): 88 % of control
T/C (dose: 50.0 mg/kg/injection, schedule: Q01DX009 (ip), vehicle: distilled water + Tween-80): 92 % of control
T/C (dose: 100.0 mg/kg/injection, schedule: Q01DX009 (ip), vehicle: distilled water + Tween-80): 99 % of control
T/C (dose: 200.0 mg/kg/injection, schedule: Q01DX009 (ip), vehicle: distilled water + Tween-80): 100 % of control

O=C(Nc1ccccc1)Nc1ccccc1C(=O)O
T/C (dose: 50.0 mg/kg/injection, schedule: Q04DX003 (ip), vehicle: Klucel (hydroxypropylcellulose) (HPC)): 100 % of control
T/C [4]: 107 % of control
T/C [5]: 109 % of control
T/C [6]: 93 % of control

CCn1c(=O)c2c(N(CCO)CCO)snc2n(CC)c1=O
T/C (dose: 100.0 mg/kg/injection, schedule: Q04DX002 (ip), vehicle: suspension in saline): 104 % of control
T/C (dose: 200.0 mg/kg/injection, schedule: Q04DX002 (ip), vehicle: suspension in saline): 101 % of control
T/C (dose: 400.0 mg/kg/injection, schedule: Q04DX002 (ip), vehicle: suspension in saline): 102 % of control

Cc1ccnc(NS(=O)(=O)c2ccc(NC(=O)Nc3ccc(Cl)c(C(F)(F)F)c3)cc2)n1
T/C [1]: 99 % of control
T/C [2]: 104 % of control
T/C [3]: 96 % of control

COC(=O)C1(C(C)C)N=C(c2ccccc2)OO1 (stereo not drawn)
T/C (dose: 25.0 mg/kg/injection, schedule: Q01DX009 (ip), vehicle: saline with Tween-80): 91 % of control
T/C [7]: 100 % of control
T/C [8]: 104 % of control

COC(=O)CCc1cc(=O)oc2c(I)c(O)cc(O)c12
T/C (dose: 8.75 mg/kg/injection, schedule: Q01DX005 (ip), vehicle: Klucel (hydroxypropylcellulose) (HPC)): 99 % of control
T/C (dose: 17.5 mg/kg/injection, schedule: Q01DX005 (ip), vehicle: Klucel (hydroxypropylcellulose) (HPC)): 93 % of control
T/C (dose: 35.0 mg/kg/injection, schedule: Q01DX005 (ip), vehicle: Klucel (hydroxypropylcellulose) (HPC)): 101 % of control
